ChEMBL document CHEMBL1201862, “PubChem BioAssay data set” (2004)
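Compound exposure: 48 hours, 5 concentrations, 96-well plates. GI50 = concentration required for 50% inhibition of growth.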 Active and inactive are the calls of the source. No stated cut-off is given here; in the data, active = GI50 up to about 1.1 µM and inactive = higher.

Tests used:
Experiment in all cases: NCI anticancer screen, dose series, 48 h
UO-31 = tested on: UO-31
DU-145 = tested on: DU-145
Malme-3M = tested on: Malme-3M
SK-MEL-2 = tested on: SK-MEL-2
NCI/ADR-RES = tested on: NCI/ADR-RES
ACHN = tested on: ACHN
NCI-H522 = tested on: NCI-H522
EKVX = tested on: EKVX
SN12C = tested on: SN12C
U-251 = tested on: U-251
K562 = tested on: K562
MDA-N = tested on: MDA-N
NCI-H460 = tested on: NCI-H460
HOP-62 = tested on: HOP-62
COLO 205 = tested on: COLO 205
HCT-15 = tested on: HCT-15
SF-268 = tested on: SF-268
MCF7 = tested on: MCF7
MOLT-4 = tested on: MOLT-4

Measured: GI50

Nc1nc(SCC(=O)c2ccc(Br)cc2)c2nc[nH]c2n1
30.1 µM: HCT-15
inactive: UO-31 27.4 µM | DU-145 27.5 µM | Malme-3M 29.4 µM | SK-MEL-2 32.1 µM | NCI/ADR-RES 27.4 µM | ACHN 34 µM | NCI-H522 17.8 µM | EKVX 38.5 µM | SN12C 34.4 µM | U-251 44.4 µM | K562 18.1 µM | MDA-N 34.8 µM | NCI-H460 28.7 µM | HOP-62 44.9 µM | COLO 205 17 µM | SF-268 23 µM | MCF7 56.4 µM

CCOC(=O)/C(C(=S)NCc1ccccc1)=C(/N)N1CCCC1
> 100 µM: HCT-15
inactive: UO-31 56.9 µM | DU-145 > 100 µM | Malme-3M > 100 µM | SK-MEL-2 > 100 µM | NCI/ADR-RES > 100 µM | ACHN > 100 µM | MOLT-4 > 100 µM | NCI-H522 > 100 µM | EKVX > 100 µM | SN12C > 100 µM | U-251 > 100 µM | K562 > 100 µM | MDA-N > 100 µM | NCI-H460 > 100 µM | HOP-62 > 100 µM | COLO 205 > 100 µM | SF-268 > 100 µM | MCF7 > 100 µM

Cc1ccnc2c1c(=O)c1ccccc1n2C
38 µM: HCT-15
inactive: UO-31 12.9 µM | DU-145 52.2 µM | Malme-3M 29.6 µM | SK-MEL-2 52.1 µM | NCI/ADR-RES 40.6 µM | ACHN 27.7 µM | MOLT-4 23.9 µM | NCI-H522 19.1 µM | EKVX 30.8 µM | SN12C 30.5 µM | U-251 39.8 µM | K562 50.7 µM | MDA-N 34.3 µM | NCI-H460 13.1 µM | HOP-62 40.7 µM | COLO 205 39 µM | SF-268 28 µM | MCF7 32.9 µM

O=c1[nH]c(=O)n(C/C=C/CO)nc1Br
inactive: UO-31 > 100 µM | DU-145 > 100 µM | Malme-3M > 100 µM | SK-MEL-2 > 100 µM | NCI/ADR-RES > 100 µM | ACHN > 100 µM | MOLT-4 > 100 µM | NCI-H522 > 100 µM | EKVX > 100 µM | SN12C > 100 µM | U-251 > 100 µM | MDA-N > 100 µM | NCI-H460 > 100 µM | HOP-62 > 100 µM | COLO 205 > 100 µM | SF-268 > 100 µM | MCF7 > 100 µM
> 100 µM: HCT-15

O=C(CSc1nc2ccc(I)cc2c(=O)n1Cc1ccccc1)NN1C(=O)c2ccccc2C1=O
30.1 µM: HCT-15
inactive: UO-31 2.37 µM | DU-145 25.4 µM | Malme-3M 18.2 µM | SK-MEL-2 10.8 µM | NCI/ADR-RES 15.5 µM | ACHN 18.9 µM | MOLT-4 28.4 µM | NCI-H522 14.9 µM | EKVX 12.9 µM | SN12C 18.8 µM | U-251 12.7 µM | K562 31 µM | MDA-N 37.3 µM | NCI-H460 22.9 µM | HOP-62 4.75 µM | COLO 205 25.5 µM | SF-268 8.85 µM | MCF7 23.3 µM

COc1ccc2c(c1)CC[C@@H]1[C@@H]2CC[C@]2(C)C(=O)/C(=C/c3ccncc3)C[C@@H]12
inactive: UO-31 37.2 µM | DU-145 38.8 µM | Malme-3M 25.8 µM | SK-MEL-2 22.5 µM | NCI/ADR-RES 48.8 µM | ACHN 42.5 µM | MOLT-4 > 100 µM | NCI-H522 30.4 µM | EKVX 53.6 µM | SN12C 55.6 µM | U-251 54.3 µM | K562 > 100 µM | MDA-N 42.6 µM | NCI-H460 27.8 µM | HOP-62 19.9 µM | COLO 205 25.3 µM | SF-268 36.1 µM | MCF7 61.4 µM
41.4 µM: HCT-15

O=C(O)c1ccccc1/C=C1/Cc2ccc3c(c2C1=O)CCC3
33.6 µM: HCT-15
inactive: UO-31 39.7 µM | DU-145 68.9 µM | Malme-3M 50.8 µM | SK-MEL-2 12.7 µM | NCI/ADR-RES 50.2 µM | ACHN 37.7 µM | MOLT-4 33.8 µM | NCI-H522 42.4 µM | EKVX 48.1 µM | SN12C 51.8 µM | U-251 27.6 µM | K562 33.3 µM | MDA-N 29.6 µM | NCI-H460 45.4 µM | HOP-62 68.9 µM | COLO 205 19.1 µM | SF-268 36.1 µM | MCF7 49.5 µM

Fc1cccc(F)c1C1SCc2nc3ccc(Cl)cc3n21 (configuration not stated)
inactive: UO-31 > 100 µM | DU-145 > 100 µM | Malme-3M > 100 µM | SK-MEL-2 > 100 µM | NCI/ADR-RES > 100 µM | ACHN > 100 µM | MOLT-4 > 100 µM | NCI-H522 > 100 µM | EKVX > 100 µM | SN12C > 100 µM | U-251 > 100 µM | K562 51.1 µM | MDA-N > 100 µM | NCI-H460 > 100 µM | HOP-62 > 100 µM | COLO 205 > 100 µM | SF-268 > 100 µM | MCF7 > 83 µM
> 100 µM: HCT-15

N#Cc1c(-c2ccc(Cl)cc2)c2c(n(C3OC(CO)C(O)C(O)C3O)c1=S)CCCC2 (configuration not stated)
> 100 µM: HCT-15
inactive: UO-31 74.5 µM | DU-145 > 100 µM | Malme-3M 50.8 µM | SK-MEL-2 > 100 µM | NCI/ADR-RES > 100 µM | ACHN 79.8 µM | MOLT-4 26.1 µM | NCI-H522 63.2 µM | EKVX 56.1 µM | SN12C 68.5 µM | U-251 64.9 µM | K562 37.8 µM | MDA-N 44.2 µM | NCI-H460 54.2 µM | HOP-62 85.3 µM | COLO 205 38.3 µM | SF-268 > 100 µM | MCF7 55.2 µM

C=CCN1C(=O)/C(=C\c2cc(C(C)(C)C)c(O)c(C(C)(C)C)c2)NC1=S
inactive: UO-31 28.8 µM | DU-145 21.2 µM | Malme-3M 7.19 µM | SK-MEL-2 14.1 µM | NCI/ADR-RES 23.9 µM | ACHN 26.5 µM | MOLT-4 30.7 µM | NCI-H522 12.4 µM | EKVX 19.9 µM | SN12C 23.1 µM | U-251 14.3 µM | K562 19.9 µM | MDA-N 27.4 µM | NCI-H460 15.3 µM | HOP-62 20.9 µM | COLO 205 16.9 µM | SF-268 36.1 µM | MCF7 20.7 µM
22.2 µM: HCT-15

COc1c(C(=O)O)cccc1-c1cccc(C(=O)NCCN(CCNC(=O)c2cccc(-c3cccc(C(=O)O)c3OC)c2OC)CCNC(=O)c2cccc(-c3cccc(C(=O)O)c3OC)c2OC)c1OC
65.2 µM: HCT-15
inactive: UO-31 > 100 µM | DU-145 39 µM | Malme-3M 23.4 µM | SK-MEL-2 31.8 µM | NCI/ADR-RES > 100 µM | ACHN 50.5 µM | MOLT-4 36.7 µM | NCI-H522 33.3 µM | EKVX 64.6 µM | SN12C 29.4 µM | U-251 28.5 µM | K562 24.3 µM | MDA-N 5.58 µM | NCI-H460 25.4 µM | HOP-62 58.9 µM | COLO 205 20.2 µM | SF-268 74.8 µM | MCF7 37.8 µM
